Several values for one entry are separate records, joined by “and”; a condition that tells them apart may be missing. Equal entries are not always repeated.
Test system: GIP-C cells
Assay: Attachment factors study with subcultured GIP-C cells (cell counts in supernatant and of attached cells)
Assay type: cell-based
Details: for Cell counts in Supernatant, 5-8 μm / Cell counts of Attached cells, 2-5 μm / Cell counts in Supernatant, 2-5 μm / Cell counts of Attached cells, 5-8 μm: wells coated with attachment factor, RPMI 1640 media with supplements, two wells each; for Attaching of cells from 2-5 μm (comparison of attachment factors): cells 2-5 μm
Experimental: Two of the six well plates were coated with the following attachment factors: Collagen type IV, Fibronectin, Superfibronectin, ECM gel and Laminin. Collagen type IV (2 mg/ml) was made by dissolving 0.75 mg of collagen in 375 μl of sterilized 0.25% acetic acid. Collagen type IV (187.5 μl) was used to coat two wells and Incubated overnight at 2-8° C. Fibronectin (250 μl of 10 μg/ml) was used to coat each well and air-dried at room temperature for 45 minutes. Superfibronectin (250 μl of 5 μg/ml) was used to coat each well and incubated at 37° C. for two hours. The wells were then washed twice with 100 μl of PBS, and left to air dry in a laminar flow hood. ECM gel was thawed overnight before use; 250 μl of ECM gel was mixed with 250 μl of cold DMEM medium before using 250 μl of the mixture to coat precooled wells. The ECM gel was then left for five minutes at 20° C. for the gel to polymerize. An aliquot of 200 μg/200 μl of laminin was thawed at 4° C. for 2-4 hrs before making a dilution using 36 μl of stock solution and diluting it with 464 μl of sterile PBS. Laminin (250 μl, 18 μg/well) was used to coat each well. The plates with laminin were then air-dried for 45 minutes. All of the plates containing the attachment factors were sterilized overnight by exposure to UV light in a sterile tissue culture hood.
RPMI 1640 media (250 ml) was obtained from Invitrogen (11875-085), to which the following supplements were added: 100 ng/ml of cholera-toxin (Sigma, C8052), 500 ng/ml of hydrocortisone (Sigma, H0888), 5% of heat inactivated horse serum (Gibco, 16050-130) and 25 ml of Mesenchymal supplement (Stemcell technologies, 05402). After the media was filter sterilized and aliquots of 26 ml were made, they were stored at 4° C.
RPMI 1640 media with all the supplements was warmed at 37° C. Two ml of the media was added to each well containing the attachment factors along with 3 control wells which contained no attachment factors. Cells previously subcultured in mesencult medium were pelleted and divided into 100,000 cells per well and incubated at 37° C. The cells were observed under a phase-contrast microscope. Once, every two days the top layer containing the unattached GIP-C cells was removed, washed and resuspended in freezing media. Two ml of RPMI 1640 media with the supplements was added to the wells and incubated at 37° C.
The gastrointestinal progenitor cells in culture were found mostly in suspension in the culture media. In order to test the adherence of these cells a study was conducted where they were plated on tissue culture wells coated with each of the five different epithelial cell attachment factors: collagen type IV, laminin, superfibronectin, fibronectin, and ECM gel. There were three control wells with no attachment factors in them.

Substance: Fibronectin
- Cell counts in Supernatant, 5-8 μm: 68340 Cells/ml and 63918 Cells/ml
- Cell counts of Attached cells, 2-5 μm: 68340 Cells/ml

Substance: Superfibronectin
- Attaching of cells from 2-5 μm (comparison of attachment factors): seemed to be better at attaching cells
- Cell counts in Supernatant, 2-5 μm: 3.96E+07 Cells/ml and 5.06E+07 Cells/ml
- Cell counts in Supernatant, 5-8 μm: 67536 Cells/ml and 54672 Cells/ml
- Cell counts of Attached cells, 2-5 μm: 1.62E+06 Cells/ml and 1.35E+06 Cells/ml

Substance: Laminin
- Cell counts in Supernatant, 2-5 μm: 4.09E+07 Cells/ml and 3.04E+07 Cells/ml
- Cell counts in Supernatant, 5-8 μm: 90048 Cells/ml and 84822 Cells/ml
- Cell counts of Attached cells, 2-5 μm: 974448 Cells/ml and 643602 Cells/ml
- Cell counts of Attached cells, 5-8 μm: 40602 Cells/ml and 43416 Cells/ml

Substance: Collagen type IV
- Attaching of cells from 2-5 μm (comparison of attachment factors): seemed to be better at attaching cells
- Cell counts in Supernatant, 2-5 μm: 1.22E+07 Cells/ml and 1.60E+07 Cells/ml
- Cell counts of Attached cells, 2-5 μm: 2.25E+06 Cells/ml and 1.19E+06 Cells/ml
- Cell counts of Attached cells, 5-8 μm: 57486 Cells/ml

Reference: patent US20080166807A1, “Autologous progenitor stem cells of gastrointestinal origin” (priority 2005, published 2008)
